What was measured:
[1] = Positive inotropic activity in perfused rabbit left atrium assessed as increase in stroke volume at 10 uM; format: functional, Oryctolagus cuniculus, Cardiac atrium
Oryctolagus cuniculus = species on record: Oryctolagus cuniculus; assay: Positive inotropic activity in perfused rabbit left atrium assessed as increase in stroke volume; format: functional, tissue-based; conditions: Cardiac atrium
[2] = Chronotropic activity in perfused rabbit left atrium assessed as change in heart rate (RVB = 102.31 +/- 0.07 beats/mins); format: tissue-based, Oryctolagus cuniculus, Cardiac atrium
[3] = Chronotropic activity in perfused rabbit left atrium assessed as change in heart rate (RVB = 105.33 +/- 0.12 beats/mins); format: tissue-based, Oryctolagus cuniculus, Cardiac atrium
[4] = Chronotropic activity in perfused rabbit left atrium assessed as change in heart rate (RVB = 89.51 +/- 0.09 beats/mins); format: tissue-based, Oryctolagus cuniculus, Cardiac atrium
[5] = Chronotropic activity in perfused rabbit left atrium assessed as change in heart rate (RVB = 92.52 +/- 017 beats/mins); format: tissue-based, Oryctolagus cuniculus, Cardiac atrium

| SMILES | Activity [1] [%] | further results |
| --- | --- | --- |
| O=C(CN1CCCN(Cc2ccccc2Br)CC1)Nc1ccc2c(c1)OCC(=O)N2 | 7.68 | Activity (Oryctolagus cuniculus): Dose-dependent effect; Activity [2]: 98.64 bpm |
| COc1cccc(CN2CCN(CC(=O)Nc3ccc4c(c3)OCC(=O)N4)CC2)c1 | 3.96 |  |
| Cc1[nH]c(=O)c(C#N)cc1-c1ccncc1 [MILRINONE] | 2.38 |  |
| O=C(CN1CCCN(Cc2ccccc2F)CC1)Nc1ccc2c(c1)OCC(=O)N2 | 6.05 | Activity [3]: 102.88 bpm |
| COc1cc(CN2CCCN(CC(=O)Nc3ccc4c(c3)OCC(=O)N4)CC2)ccc1OCc1ccc(Cl)cc1 | 2.87 | Activity [4]: 80.02 bpm |
| COc1ccc(CN2CCCN(CC(=O)Nc3ccc4c(c3)OCC(=O)N4)CC2)cc1 | 3.22 | Activity [5]: 89.37 bpm |
